{
  "source": "patent US20110312934A1",
  "about": "“2-ALKYL-6-CYCLOAMINO-3-(PYRIDIN-4-YL)IMIDAZO[1,2-B]-PYRIDAZINE DERIVATIVES, PREPARATION THEREOF, AND THERAPEUTIC APPLICATION THEREOF” (SANOFI-AVENTIS, priority 2008, published 2011)",
  "system": "Mper1-luc Rat-1 (P2C4) fibroblasts",
  "assay": "Circadian cell assay (mPer1 luciferase reporter, period prolongation)",
  "type": "cell-based",
  "conditions": "effective concentration that induced a 1-hour prolongation of the circadian period, interpolated from hyperbolic curve",
  "protocol": "Mper1-luc Rat-1 (P2C4) fibroblast cultures were prepared by dividing the cultures every 3-4 days (approximately 10-20% of confluence) on 150 cm^2 degassed polystyrene tissue culture flasks (Falcon® #35-5001) and maintained in growth medium [EMEM (Cellgro #10-0,0-CV); 10% foetal bovine serum (FBS; Gibco #16000-044); and 50 I.U./ml of penicillin-streptomycin (Cellgro #30-001-CI)] at 37° C. and under 5% CO2.\nCells obtained from Rat-1 fibroblast cultures at 30-50% of confluence as described above were co-transfected with vectors containing the selection marker for resistance to zeocin for a stable transfection and a luciferase reporter gene controlled by the mPer-1 promoter. After 24 to 48 hours, the cultures were divided on 96-well plates and maintained in growth medium supplemented with 50-100 μg/ml of zeocin (Invitrogen® #45-0430) for 10-14 days. The zeocin-resistant stable transfectants were evaluated for the expression of the reporter by adding 100 μM luciferin (Promega® #E1603®) to the growth medium and by assaying the luciferase activity on a TopCount® scintillation counter (Packard Model #C384V00). The Rat-1 cell clones expressing both zeocin resistance and lucerifase activity controlled by mPer1 were serum-shock synchronized with 50% horse serum [HS (Gibco® #16050-122)] and the activity of the circadian reporter was evaluated. The P2C4 clone of Mper1-luc Rat-1 fibroblasts was selected to test the compound.\nMper1-luc Rat-1 (P2C4) fibroblasts at 40-50% of confluence, obtained according to the protocol described above, were plated out onto 96-well opaque tissue culture plates (Perkin Elmer® #6005680). The cultures are maintained in growth medium supplemented with 100 μg/ml of zeocin (Invitrogen #45-0430) until they reach 100% of confluence (48-72 h). The cultures were then synchronized with 100 μl of synchronization medium [EMEM (Cellgro #10-0,0-CV); 100 I.U./ml of penicillin-streptomycin (Cellgro #30-001-C1); 50% HS (Gibco #16050-122)] for 2 hours at 37° C. and under 5% CO2. After synchronization, the cultures were rinsed with 100 μl of EMEM (Cellgro #10-010-CV) for 10 minutes at ambient temperature. After rinsing, the medium was replaced with 300 μl of CO2 independent medium [CO2I (Gibco #18045-088); 2 mM L-glutamine (Cellgro #25-005-C1); 100 U.I./ml of penicillin-streptomycin (Cellgro #30-001-C1); 100 μM luciferin (Promega #E 1603)]. […]\nThe two methods produced a virtually identical period estimation on a range of circadian periods. […] The data were analysed by adjusting a hyperbolic curve to the data expressed as change of period (y-axis) as a function of the concentration of the test compound (x-axis) in the XLfit™ software and the CE Delta (t+1 h) was interpolated from this curve.",
  "data": [
    {"smiles": "Cc1nc2ccc(N3CCNCC3)nn2c1-c1ccncc1", "note": "[Compound 1, 2-Methyl-6-piperazin-1-yl-3-pyridin-4-yl-imidazo[1,2-b]pyridazine]", "values": [
      {"measurement": "CE Delta (t + 1 h)", "result": 20, "unit": "nM"}
    ]}
  ]
}
